According to publication PMC6706418, “Systemically Administered Plant Recombinant Holo-Intrinsic Factor Targets the Liver and is not Affected by Endogenous B12 levels” (Scientific Reports, 2019):
pKd: −log10 of the molar value.

Biological target: T1, human gastric Intrinsic factor (IF; hrIF) (Homo sapiens, UniProt P27352)
T1 construct: gene CBLIF; recombinant apo-IF expressed in Arabidopsis thaliana (Xeragenx LLC); secreted glycoprotein ~50 kDa with plant glycosylation
Assay: radiometric chase assay with […]-B12
Assay type: binding
Details: competition against 57Co-B12; B12-desferrioxamine conjugate chelated to cold 91Zr (pH 7-7.5)

T1 sequence (P27352 19-417): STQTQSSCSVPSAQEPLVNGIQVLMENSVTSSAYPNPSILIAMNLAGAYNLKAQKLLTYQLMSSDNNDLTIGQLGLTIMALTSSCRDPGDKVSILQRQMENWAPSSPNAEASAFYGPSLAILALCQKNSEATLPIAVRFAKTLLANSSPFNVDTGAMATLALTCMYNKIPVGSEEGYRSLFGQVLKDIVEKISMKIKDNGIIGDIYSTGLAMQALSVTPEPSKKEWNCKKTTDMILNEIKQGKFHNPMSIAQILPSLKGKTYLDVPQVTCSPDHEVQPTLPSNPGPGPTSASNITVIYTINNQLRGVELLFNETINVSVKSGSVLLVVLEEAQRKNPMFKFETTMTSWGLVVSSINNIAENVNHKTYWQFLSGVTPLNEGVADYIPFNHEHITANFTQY

pKd: 8.80
Substance: [^91Zr]-B12
